Results: patent US9676760B2, “Fused heterocyclic compounds as ion channel modulators” (Gilead Sciences, Inc., priority 2011, dated 2017)

What was measured:
[1] = target: T1, wild-type human cardiac sodium channel, hNav1.5 (Homo sapiens, UniProt Q14524); assay: Late INa screening assay (QPatch whole cell patch clamp, HEK293); type: cell-based
Summary of the method: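 HEK293 stably expressing hNav1.5 without beta subunits, recorded at 23-25° C. Late current was induced by 10 μM tefluthrin. Cells were depolarized from −120 mV to −20 mV for 250 ms at 0.1 Hz. Compounds were tested at 1 μM in extracellular solution, with baseline taken in 0Na-ECF; output is percent block of late INa.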

[2] = target: T1, wild-type human cardiac sodium channel, hNav1.5; assay: Peak INa screening assay (tonic and use-dependent block); type: cell-based; settings: compound at 1 μM
Description: The late sodium current (Late INa) and peak sodium current (Peak INa) assays are performed on an automated electrophysiology platform, QPatch 16× (Sophion Bioscience, Copenhagen, Denmark), which uses the whole cell patch clamp technique to measure currents through the cell membrane of up to 16 cells at a time. The assay uses an HEK293 (human embryonic kidney) cell line heterologously expressing the wild-type human cardiac sodium channel, hNav1.5, purchased from Millipore (Billerica, Mass.). No beta subunits were coexpressed with the Na channel alpha subunit. Cells are maintained with standard tissue culture procedures and stable channel expression is maintained with 400 μg/mL Geneticin in the culture medium. Cells isolated for use on QPatch are incubated for 5 minutes in Detachin 1×(Genlantis, San Diego, USA) at 37° C. to ensure that 80-90% of the cells are single and not part of a cell cluster. Experiments are carried out at 23-25° C.
For both the Late INa and Peak INa assays, series resistance compensation is set to 100% and series resistance and whole-cell compensation are performed automatically. Currents are digitized at 25 kHz and low-pass filtered at 12 kHz and 10 kHz for the late and peak INa assays, respectively. Currents through open sodium channels are automatically recorded and stored in the Sophion Bioscience Oracle database (Sophion Bioscience, Copenhagen, Denmark). Analysis is performed using QPatch Assay and database software and data are compiled in Excel.
Compound stocks are routinely made by the Gilead Sample Bank in plastic vials to 10 mM in dimethyl sulfoxide (DMSO). In some cases, when compounds are not soluble in DMSO, they are made in 100% ethanol. Stocks are sonicated as necessary. The extracellular solution for screening Late INa is composed of: 140 mM NaCl, 4 mM KCl, 1.8 mM CaCl2, 0.75 mM MgCl2 and 5 mM HEPES with pH adjusted to 7.4 using NaOH. The intracellular solution used to perfuse the inside of the cells for both the Late INa and Peak INa assays contains: 120 mM CsF, 20 mM CsCl, 5 mM EGTA, 5 mM HEPES and pH adjusted to 7.4 with CsOH. Compounds are diluted in extracellular solution to 1 μM in glass vials and then transferred to glass well plates before robotic addition to the cells. The 0 mM Na extracellular solution (0Na-ECF) used at the end of each experiment for the Late INa and Peak INa assays to measure baseline current contains: 140 mM N-methyl-D-glucamine; 4 mM KCl; 1.8 mM CaCl2; 0.75 mM MgCl2; 5 mM HEPES and pH was adjusted to 7.4 with HCl.
Compounds were also evaluated for their effect in several other assays, including their effect on Peak INa. […] Since the peak INa in the cells used herein can be very large, introducing artifacts in the recording, the concentration of Na^+ in the bath can be reduced to 20 mM and a nonpermeant cation added to compensate for the Na^+ that was removed to maintain the osmolarity and ionic strength of the solution (see solution details below).
A low stimulation frequency of 0.1 Hz was used to determine the effect of the test compound when the channel spent most of the time in the resting (closed) state and provides information about Tonic Block (TB). A higher stimulation frequency (3 Hz) was used to measure block of the channel when it spent more time in the activated and inactivated states and provided a measure of Use-Dependent Block (UDB). Use-dependent block refers to the accumulation of block with increased frequency of channel activation.

[3] = HEK293, percent block of late INa, compound at 1 μM, 10 μM Tefluthrin, read-out: Late INa 1 μM
[4] = tonic block of peak INa, 0.1 Hz, read-out: Peak TB 1 μM
[5] = use-dependent block of peak INa, 3 Hz, read-out: Peak UDB 1 μM

T1 sequence (Q14524 whole entry): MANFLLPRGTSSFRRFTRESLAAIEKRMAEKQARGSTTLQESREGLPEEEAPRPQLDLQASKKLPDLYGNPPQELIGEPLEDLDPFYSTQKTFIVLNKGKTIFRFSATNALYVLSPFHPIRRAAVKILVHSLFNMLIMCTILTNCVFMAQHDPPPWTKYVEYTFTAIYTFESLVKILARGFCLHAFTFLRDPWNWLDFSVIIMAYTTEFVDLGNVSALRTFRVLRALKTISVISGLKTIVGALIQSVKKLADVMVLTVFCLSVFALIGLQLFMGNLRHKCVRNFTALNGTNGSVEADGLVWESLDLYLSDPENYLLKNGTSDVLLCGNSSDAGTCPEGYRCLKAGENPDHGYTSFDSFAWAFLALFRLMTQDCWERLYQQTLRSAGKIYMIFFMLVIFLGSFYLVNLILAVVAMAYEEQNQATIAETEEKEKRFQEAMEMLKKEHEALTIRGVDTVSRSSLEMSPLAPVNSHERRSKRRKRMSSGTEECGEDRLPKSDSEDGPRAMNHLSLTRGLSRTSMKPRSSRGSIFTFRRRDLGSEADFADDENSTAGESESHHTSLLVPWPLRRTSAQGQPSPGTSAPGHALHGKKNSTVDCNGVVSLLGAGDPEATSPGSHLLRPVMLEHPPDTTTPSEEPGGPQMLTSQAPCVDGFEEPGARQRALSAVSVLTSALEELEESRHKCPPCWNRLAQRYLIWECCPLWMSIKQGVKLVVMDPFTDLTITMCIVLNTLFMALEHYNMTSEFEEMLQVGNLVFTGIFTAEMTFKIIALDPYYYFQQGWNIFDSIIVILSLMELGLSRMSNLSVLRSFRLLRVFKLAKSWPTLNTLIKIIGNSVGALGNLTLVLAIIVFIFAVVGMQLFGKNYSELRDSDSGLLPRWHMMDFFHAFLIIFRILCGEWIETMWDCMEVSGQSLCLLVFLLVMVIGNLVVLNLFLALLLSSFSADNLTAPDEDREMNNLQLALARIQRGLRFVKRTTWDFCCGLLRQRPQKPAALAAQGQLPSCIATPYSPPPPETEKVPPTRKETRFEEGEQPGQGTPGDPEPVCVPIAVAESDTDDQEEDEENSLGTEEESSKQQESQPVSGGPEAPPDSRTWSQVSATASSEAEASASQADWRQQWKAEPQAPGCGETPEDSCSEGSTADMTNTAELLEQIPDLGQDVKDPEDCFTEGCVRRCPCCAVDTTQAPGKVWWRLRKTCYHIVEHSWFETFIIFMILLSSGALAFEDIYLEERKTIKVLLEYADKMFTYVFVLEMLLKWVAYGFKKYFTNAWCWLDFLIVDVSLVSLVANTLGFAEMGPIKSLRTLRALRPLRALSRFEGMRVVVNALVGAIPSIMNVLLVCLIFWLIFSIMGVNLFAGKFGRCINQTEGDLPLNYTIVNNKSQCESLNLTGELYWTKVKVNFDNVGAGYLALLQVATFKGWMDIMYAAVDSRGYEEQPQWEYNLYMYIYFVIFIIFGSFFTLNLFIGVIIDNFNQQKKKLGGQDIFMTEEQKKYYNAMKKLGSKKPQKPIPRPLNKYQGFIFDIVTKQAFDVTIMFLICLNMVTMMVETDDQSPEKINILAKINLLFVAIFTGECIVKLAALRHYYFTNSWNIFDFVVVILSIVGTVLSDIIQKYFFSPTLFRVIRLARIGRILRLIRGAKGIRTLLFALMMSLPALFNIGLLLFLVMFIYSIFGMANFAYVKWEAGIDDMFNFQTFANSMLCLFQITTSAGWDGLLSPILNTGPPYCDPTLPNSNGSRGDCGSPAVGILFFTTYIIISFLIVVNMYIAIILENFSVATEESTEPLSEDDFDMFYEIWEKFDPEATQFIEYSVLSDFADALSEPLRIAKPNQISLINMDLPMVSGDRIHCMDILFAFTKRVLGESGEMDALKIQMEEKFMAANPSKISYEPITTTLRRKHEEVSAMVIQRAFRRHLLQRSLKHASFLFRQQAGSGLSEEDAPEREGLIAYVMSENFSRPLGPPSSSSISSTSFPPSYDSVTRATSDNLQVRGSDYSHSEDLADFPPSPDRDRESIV

SMILES	inhibition at 1 µM [1, 3]	inhibition at 1 µM [2, 4]	inhibition at 1 µM [2, 5]	inhibition at 1 µM ([1]; HEK293, % Inhibition at 1 uM, read-out: Late INa*)
CN1C(=O)CN(Cc2ccccc2)C(=O)c2cc(-c3ccc(C(F)(F)F)cc3)ccc21 [Compound X-11, 4-benzyl-1-methyl-7-(4-(trifluoromethyl)phenyl)-3,4-dihydro-1H-benzo[e][1,4]diazepine-2,5-dione]	48%	17%	20%	
O=C1c2cc(-c3ccc(OC(F)(F)F)cc3)ccc2OCCN1Cc1cccc(C(F)(F)F)n1 [II-15, 7-(4-(trifluoromethoxy)phenyl)-4-((6-(trifluoromethyl)pyridin-2-yl)methyl)-3,4-dihydrobenzo[f][1,4]oxazepin-5(2H)-one]	48%	8%	8%	
O=C1c2cc(-c3ccc(OC(F)(F)F)cc3)ccc2OCCN1Cc1cnccn1 [II-31, 4-(pyrazin-2-ylmethyl)-7-(4-(trifluoromethoxy)phenyl)-3,4-dihydrobenzo[f][1,4]oxazepin-5(2H)-one]	51%	9%	8%	
Cc1cnc(CN2CCOc3ccc(-c4ccc(OC(F)(F)F)cc4)cc3C2=O)o1 [II-33, 4-((5-methyloxazol-2-yl)methyl)-7-(4-(trifluoromethoxy)phenyl)-3,4-dihydrobenzo[f][1,4]oxazepin-5(2H)-one]	46%	10%	13%	
O=C1c2cc(-c3ccc(OC(F)(F)F)cc3)ccc2OCCN1Cc1ccccc1Cl [II-47, 4-(2-chlorobenzyl)-7-(4-(trifluoromethoxy)phenyl)-3,4-dihydrobenzo[f][1,4]oxazepin-5(2H)-one]	60%	13%	45%	
O=C1c2cc(-c3ccc(OC(F)(F)F)cc3)ccc2OCCN1Cc1c(Cl)cccc1Cl [II-48, 4-(2,6-dichlorobenzyl)-7-(4-(trifluoromethoxy)phenyl)-3,4-dihydrobenzo[f][1,4]oxazepin-5(2H)-one]	47%	13%	53%	
O=C1c2cc(-c3ccc(OC(F)(F)F)cc3)ccc2OCCN1Cc1c(F)cccc1F [II-49, 4-(2,6-difluorobenzyl)-7-(4-(trifluoromethoxy)phenyl)-3,4-dihydrobenzo[f][1,4]oxazepin-5(2H)-one]	63%	28%	44%	
O=C1c2cc(-c3ccc(OC(F)(F)F)cc3)ccc2OCCN1CCn1cccn1 [II-50, 4-(2-(1H-pyrazol-1-yl)ethyl)-7-(4-(trifluoromethoxy)phenyl)-3,4-dihydrobenzo[f][1,4]oxazepin-5(2H)-one]	48%	5%	19%	
O=C1c2cc(-c3ccc(OC(F)(F)F)cc3)ccc2OCCN1CCc1ccccn1 [II-54, 4-(2-(pyridin-2-yl)ethyl)-7-(4-(trifluoromethoxy)phenyl)-3,4-dihydrobenzo[f][1,4]oxazepin-5(2H)-one]	51%	13%	20%	
O=C1c2cc(-c3ccc(OC(F)(F)F)cc3)ccc2OCCN1Cc1ccccc1F [II-57, 4-(2-fluorobenzyl)-7-(4-(trifluoromethoxy)phenyl)-3,4-dihydrobenzo[f][1,4]oxazepin-5(2H)-one]	55%	50%	41%	
O=C1c2cc(-c3ccc(OC(F)(F)F)cc3)ccc2OCCN1Cc1ccc(F)cc1 [II-62, 4-(4-fluorobenzyl)-7-(4-(trifluoromethoxy)phenyl)-3,4-dihydrobenzo[f][1,4]oxazepin-5(2H)-one]	49%	10%	14%	
Cn1ccc(CN2CCOc3ccc(-c4ccc(OC(F)(F)F)cc4)cc3C2=O)n1 [II-64, 4-((1-methyl-1H-pyrazol-3-yl)methyl)-7-(4-(trifluoromethoxy)phenyl)-3,4-dihydrobenzo[f][1,4]oxazepin-5(2H)-one]	55%	12%	19%	
O=C1c2cc(-c3ccc(OC(F)(F)F)cc3)ccc2OCCN1Cc1ccccn1 [II-72, 4-(pyridin-2-ylmethyl)-7-(4-(trifluoromethoxy)phenyl)-3,4-dihydrobenzo[f][1,4]oxazepin-5(2H)-one]	60%	22%	34%	
O=C1c2cc(-c3ccc(OC(F)(F)F)cc3)ccc2OCCN1Cc1ccccc1 [II-134, 4-benzyl-7-(4-(trifluoromethoxy)phenyl)-3,4-dihydrobenzo[f][1,4]oxazepin-5(2H)-one]	69%	38%	34%	
COc1ccnc(CN2CCOc3ccc(-c4ccc(OC(F)(F)F)cc4)cc3C2=O)n1 [II-137, 4-((4-methoxypyrimidin-2-yl)methyl)-7-(4-(trifluoromethoxy)phenyl)-3,4-dihydrobenzo[f][1,4]oxazepin-5(2H)-one]	54%	28%	26%	
O=C1c2cc(-c3ccc(C(F)(F)F)cc3)ccc2OCCN1Cc1ccccc1 [II-141, 4-benzyl-7-(4-(trifluoromethyl)phenyl)-3,4-dihydrobenzo[f][1,4]oxazepin-5(2H)-one]	73%	40%	40%	
O=C1c2cc(-c3ccc(OCC4CCC4)cc3)ccc2OCCN1Cc1ncccn1 [II-144, 7-(4-(cyclobutylmethoxy)phenyl)-4-(pyrimidin-2-ylmethyl)-3,4-dihydrobenzo[f][1,4]oxazepin-5(2H)-one]	68%	34%	41%	
O=C1c2cc(-c3ccc(OC(F)(F)F)cc3)ccc2OCCN1Cc1ccn(C(F)F)n1 [II-147, 4-((1-(difluoromethyl)-1H-pyrazol-3-yl)methyl)-7-(4-(trifluoromethoxy)phenyl)-3,4-dihydrobenzo[f][1,4]oxazepin-5(2H)-one]	54%	13%	6%	
O=C1c2cc(-c3ccc(CC(F)(F)F)cc3)ccc2OCCN1Cc1ccccn1 [II-151, 4-(pyridin-2-ylmethyl)-7-(4-(2,2,2-trifluoroethyl)phenyl)-3,4-dihydrobenzo[f][1,4]oxazepin-5(2H)-one]	51%	13%	14%	
CCn1ccc(CN2CCOc3ccc(-c4ccc(OC(F)(F)F)cc4)cc3C2=O)n1 [II-153, 4-((1-ethyl-1H-pyrazol-3-yl)methyl)-7-(4-(trifluoromethoxy)phenyl)-3,4-dihydrobenzo[f][1,4]oxazepin-5(2H)-one]	56%	15%	13%	
Cc1cnn(CN2CCOc3ccc(-c4ccc(OC(F)(F)F)cc4)cc3C2=O)c1 [II-155, 4-((4-methyl-1H-pyrazol-1-yl)methyl)-7-(4-(trifluoromethoxy)phenyl)-3,4-dihydrobenzo[f][1,4]oxazepin-5(2H)-one]	38%	13%	11%	
O=C1c2cc(-c3ccc(OC(F)(F)F)cc3)ccc2OCCN1Cn1cc(Cl)cn1 [II-156, 4-((4-chloro-1H-pyrazol-1-yl)methyl)-7-(4-(trifluoromethoxy)phenyl)-3,4-dihydrobenzo[f][1,4]oxazepin-5(2H)-one]	48%	23%	13%	48%
